Test results published in patent US9297048B2, “Antibiotic resistance profile for Neisseria gonorrhoeae and use of same in diagnosis and treatment of gonorrhea” (Medical Diagnostic Laboratories, LLC, priority 2010, dated 2016).
Like-named read-outs stand apart in the source and are kept apart here.

Experiments:
[1] = tested on: Neisseria gonorrhoeae strain ATCC 49981; assay: Neisseria gonorrhoeae antibiotic resistance panel assay (multiplex PCR + allele-specific primer extension); details: concluded from mutations/genetic markers detected
Text: (§1) FIG. 1 is a flow chart summarizing the overall steps for our antibiotic resistance assay. Note that the assay involves multiplex PCRs, followed by allele-specific primer extensions and detection means (e.g., capillary electrophoresis, gel electrophoresis or DNA micro array).
(§2) DNA was isolated from either cells obtained from ATCC or clinical samples (e.g., cervical swab) using standard protocols (i.e., guanidine thiocyanate extraction). Multiplex PCR primers were designed using Beacon Designer software v5.0 (Premier Biosoft, CA). The choice of primers was determined using several parameters including primer length, primer melting temperature, primer annealing temperature and GC content. These primers were selected to avoid hairpin and primer-dimer formation (i.e., avoid possible non-specific hybridization). In our assay, we performed four (4) multiplex PCR. This permits a rapid amplification of genes via multiplex PCRs that lack interference.
(§3) Using the selected primers (Example 4), we performed multiplex allele-specific primer extension reactions. The allele-specific primer extension reaction was performed in a single vessel, which contained a total volume of 20 μl. The multiplex allele-specific reactions contained 1×PCR buffer (Invitrogen, CA), 1.25 mM MgCl2, 100 nM of each primer, 5 μM dATP, dTTP, dGTP (Invitrogen, CA), 5 μM biotin-dCTP (Invitrogen, CA), 1 U of Tsp DNA polymerase (Invitrogen, CA), and 5 μl of purified multiplex PCR products from all four (4) multiplex PCRs as templates.
(§4) Thermal cycling conditions for extension reactions were performed in a Biometra 3.0 PCR System (Biometra, Germany) programmed for an initial cycle of 1 min at 95° C. followed by 35 cycles of 30 sec at 95° C., 30 sec at 55° C., and 30 sec at 72° C. A final 10 min extension step was performed at 72° C.
(§5) Detection of allele-specific extended primers is indicative of the presence of SNP in the genes examined. Detection of allele-specific extended primers can be achieved by several methodologies. This includes gel electrophoresis, capillary electrophoresis, as well as DNA microarray. In this particular example, we illustrated the use of a DNA microarray. The working principle of a DNA microarray involves the use of microspheres to hybridize and sort out the allele-specific extended primers, and followed by their subsequent detection using an array reader. The presence of fluorescence is indicative of the presence of an allele-specific extended primer, which in turn is indicative of the presence of a SNP in the gene.
(§6) Extended allele-specific primer hybridizations were performed using oligonucleotide-labeled xMAP flow cytometric microspheres (Luminex Corp, TX) in a hybridization buffer containing 0.2 M NaCl, 0.08% sodium lauroylsarcosine, 0.1 M Tris-HCl, pH 8.0, and 4 mM EDTA pH 8.0. Reactions were carried out in a Biometra 3.0 PCR System (Biometra, Germany) programmed for a 3 min melting at 95° C. and a 15 min hybridization at 37° C.
(§7) Sorting of allele-specific extended primers hybridized to xMAP microspheres was performed using a Bio-Plex 200 (Bio-Rad, CA) flow cytometry instrument.
(§8) 1 μl Streptavidin R-phycoerythrin conjugate (SAPE) and 250 μl 1×NaCl hybridization buffer was added to each sorted xMAP microsphere. Microspheres hybridized to allele-specific extended primers containing biotin-dCTP fluoresce and were detected using the Bio-Plex 200 array reader.
(§9) Using our antibiotic resistance panel assay, we examined the antibiotic resistance profile in these six (6) Neisseria gonorrhoeae strains. The results of the panel assay are presented in graphical format which includes 30 genetic markers (i.e., 28 point mutations in eight (8) chromosomal genes in Neisseria gonorrhoeae, two (2) plasmid genes, as well as 17 alleles in controls). Normal alleles are shown by white bars, mutant alleles, confirming resistance, are shown by black bars (See, FIGS. 3-8). […]

[2] = tested on: Neisseria gonorrhoeae strain ATCC 19424; assay: as above; details: no mutations/genetic markers detected
Text: as §1, §2, §3, §4, §5, §6, §7, §8, §9

[3] = tested on: Neisseria gonorrhoeae strain ATCC 27628; assay: as above; details: no mutations/genetic markers detected
Text: as §1, §2, §3, §4, §5, §6, §7, §8, §9

[4] = tested on: Neisseria gonorrhoeae strain ATCC 31426; assay: as above; details: concluded from mutations/genetic markers detected
Text: as §1, §2, §3, §4, §5, §6, §7, §8, §9

[5] = tested on: Neisseria gonorrhoeae from clinical sample 1; assay: Antibiotic resistance panel assay on cervicovaginal swab; details: mutations in penA, ponA, porB, mtrR, rpsJ
Text: (§10) Cervicovaginal swabs were obtained using OneSwab® technology.
The presence of Neisseria gonorrhoeae in all three (3) clinical samples were confirmed using our panel assay in which porA was used as a Neisseria gonorrhoeae species-specific marker.

[6] = tested on: Neisseria gonorrhoeae from clinical sample 2; assay: as above; details: mutations in penA, gyrA, ponA, parC, porB, mtrR, rpsJ
Text: as §10

[7] = tested on: Neisseria gonorrhoeae isolates containing mosaic penA; details: cited from earlier work
[8] = tested on: Neisseria gonorrhoeae strain ATCC 31953; assay: Neisseria gonorrhoeae antibiotic resistance panel assay (multiplex PCR + allele-specific primer extension); details: concluded from mutations/genetic markers detected
Text: as §1, §2, §3, §4, §5, §6, §7, §8, §9

[9] = tested on: Neisseria gonorrhoeae strain ATCC 49226; assay: as above; details: concluded from mutations/genetic markers detected
Text: as §1, §2, §3, §4, §5, §6, §7, §8, §9

[10] = tested on: Neisseria gonorrhoeae from clinical sample 3; assay: Antibiotic resistance panel assay on cervicovaginal swab; details: mutations in penA and rpsJ

Molecule	Antibiotic Resistance Profile Using our Assay [1]	Antibiotic Resistance Profile Using our Assay [2]	Antibiotic Resistance Profile Using our Assay [3]	Antibiotic Resistance Profile Using our Assay [4]	level of antibiotic resistance implied by panel assay [5]	level of resistance implied by panel assay [6]	MICs ([7]; three of five mosaic penA isolates containing the G545S C-terminal mutation)	MICs ([7]; two mosaic penA isolates without the G545S C-terminal mutation)	Antibiotic Resistance Profile Using our Assay [8]	Antibiotic Resistance Profile Using our Assay [9]	level of resistance implied by panel assay [10]
CC[C@H]1OC(=O)[C@H](C)[C@@H](O[C@H]2C[C@@](C)(OC)[C@@H](O)[C@H](C)O2)[C@H](C)[C@@H](O[C@@H]2O[C@H](C)C[C@H](N(C)C)[C@H]2O)[C@](C)(O)C[C@@H](C)CN(C)[C@H](C)[C@@H](O)[C@]1(C)O [azithromycin]	resistant	susceptible	susceptible	resistant	intermediate level of antibiotic resistance	intermediate level of resistance					
CO/N=C(\C(=O)N[C@@H]1C(=O)N2C(C(=O)O)=C(CSc3nc(=O)c(=O)[nH]n3C)CS[C@H]12)c1csc(N)n1 [ceftriaxone]							elevated MICs	wild-type MICs			
O=C(O)c1cn(C2CC2)c2cc(N3CCNCC3)c(F)cc2c1=O [ciprofloxacin]	resistant	susceptible	susceptible	resistant					resistant		
CN[C@@H]1[C@H](O)[C@H](NC)[C@H]2O[C@@]3(O)C(=O)C[C@@H](C)O[C@H]3O[C@@H]2[C@H]1O [spectinomycin]		susceptible	susceptible								
penicillin	resistant	susceptible	susceptible	resistant	intermediate level of antibiotic resistance	high level of resistance				resistant	low level of resistance
